The term inhibition denotes the share of the control response that was lost under treatment. The low end stands for a response near the control, the high end for a response far below the control. A word on the solubility: it is the dissolved amount per volume that the medium holds. The low end stands for little dissolved substance, the high end for much dissolved substance. As a reminder, the Km is the concentration of substrate that gives half-maximal velocity. What is called microsomal CLint is the capacity of the preparation to metabolise the compound, expressed as a volume cleared per time. Lower therefore signals greater metabolic stability.

Values after ≈ are worked out from the molar mass of the structure shown.

In one series the target is T1, UGT1A7 (Homo sapiens, UniProt Q9HAW7).
T1 sequence (Q9HAW7 26-530): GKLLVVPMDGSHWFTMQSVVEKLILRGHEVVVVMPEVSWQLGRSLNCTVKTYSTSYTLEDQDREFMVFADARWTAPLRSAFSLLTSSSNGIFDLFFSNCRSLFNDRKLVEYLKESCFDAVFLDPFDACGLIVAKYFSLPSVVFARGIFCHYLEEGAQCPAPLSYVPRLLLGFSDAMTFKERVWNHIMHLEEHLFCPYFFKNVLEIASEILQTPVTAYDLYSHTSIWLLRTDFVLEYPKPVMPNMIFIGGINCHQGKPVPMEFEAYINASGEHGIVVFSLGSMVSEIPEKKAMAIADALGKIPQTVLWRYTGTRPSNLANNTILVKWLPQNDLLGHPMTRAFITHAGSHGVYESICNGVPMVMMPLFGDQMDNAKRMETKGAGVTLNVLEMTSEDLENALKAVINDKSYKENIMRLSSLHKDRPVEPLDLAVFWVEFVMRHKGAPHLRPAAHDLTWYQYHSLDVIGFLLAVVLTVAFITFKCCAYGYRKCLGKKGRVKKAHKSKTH
Kind of series: Inhibition by aprepitant of UGT1A7. It is filed as in vitro ADME. The conditions noted are these: UGT1A7 enzyme, pH 7.5, probe 4-MU.

A further series addresses T2, UGT1A9 (Homo sapiens, UniProt O60656).
T2 sequence (O60656 26-530): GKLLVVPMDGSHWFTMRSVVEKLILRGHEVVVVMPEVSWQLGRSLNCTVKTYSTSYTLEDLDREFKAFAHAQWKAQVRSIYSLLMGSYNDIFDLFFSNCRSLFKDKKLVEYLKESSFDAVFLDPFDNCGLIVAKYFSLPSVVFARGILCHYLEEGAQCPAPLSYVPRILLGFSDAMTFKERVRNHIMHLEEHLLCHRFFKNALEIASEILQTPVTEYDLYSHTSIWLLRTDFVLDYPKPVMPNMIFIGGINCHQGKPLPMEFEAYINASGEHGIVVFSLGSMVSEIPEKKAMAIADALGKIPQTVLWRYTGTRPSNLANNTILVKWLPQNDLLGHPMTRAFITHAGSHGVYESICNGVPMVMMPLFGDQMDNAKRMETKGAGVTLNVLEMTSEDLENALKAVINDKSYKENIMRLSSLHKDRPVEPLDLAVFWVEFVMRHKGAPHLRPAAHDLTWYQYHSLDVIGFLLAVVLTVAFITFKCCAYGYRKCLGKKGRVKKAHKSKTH
As to the kind of experiment: Screening for aprepitant glucuronidation, UGT1A9 Supersomes. The conditions noted are these: UGT1A9, 5 and 250 µM aprepitant. The series is classed as in vitro ADME.

The target of the next series is T3, UGT2B15 (Homo sapiens, UniProt P54855).
T3 sequence (P54855 24-530): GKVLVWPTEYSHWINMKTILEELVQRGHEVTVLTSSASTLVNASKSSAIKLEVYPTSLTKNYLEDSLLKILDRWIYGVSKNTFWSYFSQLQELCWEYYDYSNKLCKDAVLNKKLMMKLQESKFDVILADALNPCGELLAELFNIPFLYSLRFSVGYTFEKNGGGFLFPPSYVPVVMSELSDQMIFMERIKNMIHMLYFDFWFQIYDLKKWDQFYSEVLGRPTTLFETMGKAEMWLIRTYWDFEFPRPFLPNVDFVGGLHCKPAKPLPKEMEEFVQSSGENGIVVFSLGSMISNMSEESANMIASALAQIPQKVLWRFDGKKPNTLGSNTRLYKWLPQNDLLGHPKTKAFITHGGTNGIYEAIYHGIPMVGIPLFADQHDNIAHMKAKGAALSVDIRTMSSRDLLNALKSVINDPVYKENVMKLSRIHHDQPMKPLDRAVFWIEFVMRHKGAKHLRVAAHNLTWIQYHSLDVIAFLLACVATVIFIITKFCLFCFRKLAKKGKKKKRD
As to the kind of experiment: Screening for aprepitant glucuronidation, UGT2B15 Supersomes. It is filed as in vitro ADME. The conditions noted are these: UGT2B15, 5 and 250 µM aprepitant.

Another series deals with T4, UGT2B17 (Homo sapiens, UniProt O75795).
T4 sequence (O75795 24-530): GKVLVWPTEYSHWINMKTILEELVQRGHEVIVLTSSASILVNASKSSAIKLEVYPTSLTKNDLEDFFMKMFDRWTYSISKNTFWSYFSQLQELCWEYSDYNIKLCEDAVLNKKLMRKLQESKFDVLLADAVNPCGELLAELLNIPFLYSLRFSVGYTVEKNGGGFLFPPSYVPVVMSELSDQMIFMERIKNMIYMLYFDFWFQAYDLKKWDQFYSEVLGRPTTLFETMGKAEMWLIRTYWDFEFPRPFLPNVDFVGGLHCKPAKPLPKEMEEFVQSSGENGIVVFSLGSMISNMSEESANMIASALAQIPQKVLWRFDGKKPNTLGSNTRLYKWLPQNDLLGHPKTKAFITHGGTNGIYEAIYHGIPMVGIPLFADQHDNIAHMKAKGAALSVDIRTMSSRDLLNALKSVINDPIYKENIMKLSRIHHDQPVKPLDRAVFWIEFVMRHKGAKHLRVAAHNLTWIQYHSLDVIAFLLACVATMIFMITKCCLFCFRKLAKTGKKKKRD
As to the kind of experiment: Inhibition by aprepitant of UGT2B17. The series is classed as in vitro ADME. The conditions noted are these: UGT2B17 enzyme, pH 7.5, probe 4-MU.

A short description of series [1]: Aqueous solubility of aprepitant. The conditions noted are these: aqueous medium. The series is classed as physicochemical.
A further series concerns the target T5, UGT2B7 (Homo sapiens, UniProt P16662).
T5 sequence (P16662 24-529): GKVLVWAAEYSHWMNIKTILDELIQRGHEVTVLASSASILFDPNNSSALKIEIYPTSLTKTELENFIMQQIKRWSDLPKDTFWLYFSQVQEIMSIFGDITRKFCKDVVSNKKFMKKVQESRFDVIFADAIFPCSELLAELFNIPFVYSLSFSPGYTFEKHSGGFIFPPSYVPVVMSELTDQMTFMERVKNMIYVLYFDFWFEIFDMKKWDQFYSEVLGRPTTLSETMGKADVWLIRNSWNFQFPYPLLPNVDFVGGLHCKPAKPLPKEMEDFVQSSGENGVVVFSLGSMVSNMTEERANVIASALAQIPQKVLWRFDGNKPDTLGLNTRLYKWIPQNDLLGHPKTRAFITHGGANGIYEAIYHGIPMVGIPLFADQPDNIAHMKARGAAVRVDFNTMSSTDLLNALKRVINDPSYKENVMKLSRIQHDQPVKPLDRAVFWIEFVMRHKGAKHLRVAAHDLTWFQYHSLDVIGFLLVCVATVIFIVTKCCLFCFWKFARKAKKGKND
Kind of series: Inhibition by aprepitant of UGT2B7. The series is classed as in vitro ADME. The conditions noted are these: UGT2B7 enzyme, pH 7.5, probe 4-MU.

Series [2] relates to UGTs in human intestinal microsomes (HIM). Kind of series: in vitro. The conditions noted are these: pH 7.5.
A short description of the next series: in vitro. The conditions noted are these: human, microsomes, pH 7.5.
The subject of series [3] is human liver microsomes (HLM). It is filed as in vitro ADME. The conditions noted are these: pooled HLM; Km not shown.

Consider `C[C@@H](O[C@H]1OCCN(Cc2n[nH]c(=O)[nH]2)[C@H]1c1ccc(F)cc1)c1cc(C(F)(F)F)cc(C(F)(F)F)c1` [aprepitant, Aprepitant], for which the figures for the inhibition at 10 µM on UGT1A7, on UGT2B17 and at UGT2B7 were 17%, 10% and 70%, respectively. Besides, the AP-G formation entry at UGT1A9 and at UGT2B15 was “not detected” throughout. Also, in [1], the solubility is approximately 250 µM (≈ 134 µg/mL). Also, at UGT2B7, the inhibition at 1 µM was approximately 17%. Also, the Km at 60 min in series [2] stood at 63 ± 5 µM. In “in vitro”, this molecule registered a microsomal CLint of 5600 µL/min/mg. The “shape of velocity curve (kinetics)” value in series [3] was “biphasic shape”.

(Values after publication PMC4844176 (Xenobiotica; the fate of foreign compounds in biological …, 2015).)
